Reference: the SangsterLogP compilation

Assay: method code SF, from DOI: 10.1016/0378-5173(89)90136-1

Row | logP | SMILES
1 | 2.55 | O=C(NCc1ccccc1O)c1ccccc1
2 | 3.03 | O=C(OC1C2C=CC1C=C2)c1ccccc1 (stereo not given)
3 | 1.05 | CCNC(=O)[C@@H](NC(=O)CNC(=O)c1ccccc1)C(C)C
4 | 1.09 | O=C(OCCOCCOCCO)c1ccccc1
5 | 0.58 | CCNC(=O)CNC(=O)c1ccccc1
6 | 2.31 | CCCCCCNC(=S)NC
7 | 1.78 | COCCOC(=O)c1ccccc1
8 | 1.54 | O=[N+]([O-])c1ccc(OCCN2CCOCC2)cc1
9 | 1.12 | O=C(OCCO)c1ccccc1

Row | SMILES | logP
10 | O=C(OCCNC(=O)C(F)(F)F)c1ccccc1 | 2.25
